Measured values as given in patent US12252524B2, “GIP/GLP1 co-agonist compounds” (Eli Lilly and Company, priority 2018, dated 2025).
Where two headings read alike, the source gives them in different places. Numbered stars: 1 amine (or outer) side, 2 acyl side, 3 side chain; on linkers, the order of the positions; unused ones are H or OH. Square brackets hold non-standard residues; d marks the D form. Side chains are listed from the residue outwards. Peptide text beside a SMILES is read from it. * marks the point of attachment. C20 diacid = O=C(O)CCCCCCCCCCCCCCCCCCC(=O)*; C18 diacid = O=C(O)CCCCCCCCCCCCCCCCC(=O)*; αMePhe(2-F) = C[C@](N)(Cc1ccccc1F)C(=O)O; γGlu = O=C(O)[C@H](CCC(=O)[*:2])N[*:1]; αMeL = CC(C)C[C@](C)(N)C(=O)O; Orn = NCCC[C@H](N)C(=O)O; AEEA = NCCOCCOCC(=O)O; Aib = CC(C)(N)C(=O)O

Legend:
human GIP receptor = biological target: T1, human GIP receptor (Homo sapiens, UniProt P48546); experiment: [125I]-GIP binding (SPA), human GIP receptor
T1 construct: expressed in transfected cells; crude membranes
T1 sequence (P48546 22-466): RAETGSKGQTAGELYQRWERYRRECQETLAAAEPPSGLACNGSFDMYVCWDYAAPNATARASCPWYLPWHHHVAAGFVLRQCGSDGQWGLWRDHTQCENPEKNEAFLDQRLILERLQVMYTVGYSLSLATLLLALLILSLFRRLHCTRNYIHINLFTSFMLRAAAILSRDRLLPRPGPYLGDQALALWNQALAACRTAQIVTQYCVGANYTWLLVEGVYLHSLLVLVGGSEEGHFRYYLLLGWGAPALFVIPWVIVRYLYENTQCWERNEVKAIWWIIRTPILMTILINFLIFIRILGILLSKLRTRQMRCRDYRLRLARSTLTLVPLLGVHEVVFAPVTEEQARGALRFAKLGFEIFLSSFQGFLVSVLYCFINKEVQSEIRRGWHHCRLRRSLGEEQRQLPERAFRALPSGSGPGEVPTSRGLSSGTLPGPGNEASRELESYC

[1] = Proteolytic stability assay in 1% rat small intestinal fluid (rSIF); settings: for percentage of peptide not cleaved using rSIF: 0 min, 1% rSIF, 37° C.; for remaining at 0.05 h, 0.4 mg/mL / remaining at 0.25 h, 0.4 mg/mL / remaining at 1 h, 0.4 mg/mL: rat, real gastrointestinal fluid or homogenate, pH 8
Description: The stability of peptides are compared in 1% rat small intestinal fluid (rSIF). The amount of intact peptide is measured for a sample peptide at 0, 3, 15, and 30 minutes to assess proteolytic stability. The amount of intact peptide for a sample peptide is measured in 90% pig small intestinal fluid (pSIF) at 0, 30, 45, and 60 minutes to assess the proteolytic stability.
Peptides are prepared at 0.4 mg/mL in 50 mM Tris pH8.0. […] The mixture is incubated at 37° C. at 150 rpm. Thirty μL of each sample are removed and placed into a new tube before the rSIF is added and at […]. At each time point, the reaction was quenched by 1% TFA in 50% ACN at 1:1. The samples are diluted 100 times using dilution buffer (1:1 of 1% TFA in 50% ACN: 50 mM Tris pH8) and ready for analysis using mass spectrometry (MS).
The data analysis is performed using MassLynx.

[2] = single subcutaneous 50 nMol/kg, male Sprague Dawley rats; mean (SD)
Description: (§1) The pharmacokinetics of select Examples are evaluated following a single subcutaneous (SC) administration of 50 nMol/kg (dissolved in PBS, pH 7.4) or single 1 μmol/kg (mixed with 250 mM sodium decanoate (“C10”) and 12 mg/mL soybean trypsin inhibitor (SBTI)) intrajejunal (IJ) administration to male Sprague Dawley rats. […] Pharmacokinetic parameters are calculated using individual plasma concentrations. A qualified LC/MS method that measures the intact mass of the Example is used to determine plasma (K3 EDTA) concentrations. Each Example is tested with an analog peptide as an internal standard. Immunoaffinity based precipitation with anti-GIP/GLP1 antibodies is used to extract each test peptide and analog.

in vivo [3] = settings: male, CD-1, mouse, plasma, sc, 200 nmol/kg
Description: The pharmacokinetics of select Examples are evaluated following a single subcutaneous administration of 200 nMol/kg to male CD-1 mice. […] Plasma (K3 EDTA) concentrations are determined using a qualified LC/MS method that measures the intact mass of the Examples. […] Instruments are combined for LC/MS detection.

in vivo [4] = settings: male, Sprague Dawley, rat, plasma, sc, 50 nmol/kg
Description: as §1

in vivo [5] = settings: male, Sprague Dawley, rat, plasma, other: intrajejunal, 1 umol/kg
Description: as §1

human GLP-1R = human GLP-1R (Homo sapiens, UniProt P43220); experiment: [125I]-GLP-1 binding (SPA), human GLP-1 receptor; design: expressed in transfected cells; crude membranes
In short: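 Ki values are geometric means with SEM over independent replicates on different days, derived from IC50s fitted by four-parameter nonlinear regression. The assay used crude cell membranes in HEPES buffer, pH 7.4, containing CaCl2, MgCl2, bacitracin and TWEEN-20.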

[6] = tested on: CD8+ T cell depleted peripheral blood mononuclear cells; experiment: CD4+ T cell assay for potential clinical immunogenicity; settings: for frequency of positive CD+ T cell response (CDI>2.5): CD4+ T cell assay; for % Donor Response (CD4+ T cell response) / Median Response Strength in positive donors (CDI): Examples 10 uM, KLH 0.33 μM, 7 days
Description: (§2) The purpose of this study is to determine the relative potential for clinical immunogenicity of a compound.
(§3) CD8+ T cell depleted peripheral blood mononuclear cells are prepared and labeled with Carboxyfluorescein Diacetate Succinimidyl Ester (CFSE, Invitrogen) from a cohort of 10 healthy donors. […] Cultures are incubated for 7 days at 37° C. with 5% CO2. On day 7, samples are analyzed by flow cytometry using High Throughput Sampler (HTS). Data is analyzed using FlowJo® Software (FlowJo, LLC, TreeStar).

[7] = tested on: CD8+ T cell depleted peripheral blood mononuclear cells
Description: as §2, §3

Sequence of human GLP-1R (P43220 24-463): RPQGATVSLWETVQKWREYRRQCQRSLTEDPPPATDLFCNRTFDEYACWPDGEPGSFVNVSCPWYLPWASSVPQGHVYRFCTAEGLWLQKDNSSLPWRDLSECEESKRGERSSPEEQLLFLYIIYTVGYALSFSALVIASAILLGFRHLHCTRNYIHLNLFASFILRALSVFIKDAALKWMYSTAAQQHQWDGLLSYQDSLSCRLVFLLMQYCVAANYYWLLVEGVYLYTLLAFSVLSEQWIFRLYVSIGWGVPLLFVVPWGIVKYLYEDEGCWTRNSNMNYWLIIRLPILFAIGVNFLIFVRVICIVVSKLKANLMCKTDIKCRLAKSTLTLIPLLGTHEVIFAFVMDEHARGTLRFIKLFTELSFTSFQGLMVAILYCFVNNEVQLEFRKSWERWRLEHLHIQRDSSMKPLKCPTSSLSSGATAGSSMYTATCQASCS

Structure (SMILES)	Ki (human GIP receptor)	percentage of peptide not cleaved using rSIF [1]	remaining at 0.05 h, 0.4 mg/mL [1]	remaining at 0.25 h, 0.4 mg/mL [1]	remaining at 1 h, 0.4 mg/mL [1]	AUCINF_D_obs [2]	Cmax/D [2]	CL/F (in vivo [3])	Tmax (in vivo [3])	half-life (in vivo [3])	CL/F (in vivo [4])	Tmax (in vivo [4])	half-life (in vivo [4])	Tmax (in vivo [5])	Ki (human GLP-1R)	frequency of positive CD+ T cell response (CDI>2.5) [6]	% Donor Response (CD4+ T cell response) [6]	Median Response Strength in positive donors (CDI) [6]	other results
CC[C@H](C)[C@H](NC(=O)[C@H](CC(C)C)NC(=O)[C@H](Cc1ccc(O)cc1)NC(=O)[C@@H](CCC(=O)O)NC(=O)[C@@H](NC(=O)[C@H](Cc1ccccc1)NC(=O)[C@H](CCC(=O)O)NC(=O)C(C)(C)NC(=O)[C@H](CCC(N)=O)NC(=O)[C@H](C)NC(=O)[C@H](CCCCNC(=O)COCCOCCNC(=O)COCCOCCNC(=O)CC[C@H](NC(=O)CCCCCCCCCCCCCCCCCCC(=O)O)C(=O)O)NC(=O)[C@H](CCC(=O)O)NC(=O)[C@H](CC(=O)O)NC(=O)[C@H](CC(C)C)NC(=O)[C@](C)(CC(C)C)NC(=O)[C@@H](NC(=O)[C@H](CO)NC(=O)[C@H](Cc1ccc(O)cc1)NC(=O)[C@H](CC(=O)O)NC(=O)[C@H](CO)NC(=O)[C@@H](NC(=O)[C@](C)(Cc1ccccc1F)NC(=O)[C@@H](NC(=O)CNC(=O)[C@H](CCC(=O)O)NC(=O)C(C)(C)NC(=O)[C@@H](N)Cc1ccc(O)cc1)[C@@H](C)O)[C@@H](C)O)[C@@H](C)CC)[C@@H](C)CC)C(=O)N[C@@H](CCC(=O)O)C(=O)NCC(=O)NCC(=O)N1CCC[C@H]1C(=O)N[C@@H](CO)C(=O)N[C@@H](CO)C(=O)NCC(=O)N[C@@H](C)C(=O)N1CCC[C@H]1C(=O)N1CCC[C@H]1C(=O)N1CCC[C@H]1C(=O)N[C@@H](CO)C(N)=O [Example 1] (H-Y[Aib]EGT[αMePhe(2-F)]TSDYSI[αMeL]LDEK([AEEA-AEEA-γGlu-C20 diacid])AQ[Aib]EFI[dE]YLIEGGPSSGAPPPS-NH2)	0.0546 nM	100%	82.4%	41.4%	1.6%	294.2 (30.0) hr*kg*nmol/L/nmol	3.34 (0.22) kg*nmol/L/nmol	7.37 mL/h/kg	12 h	17.5 h	3.42 mL/h/kg	21.3 h	44.7 h	1.33 h	6.67 nM	low	9%	0.7 CDI	
CC[C@H](C)[C@H](NC(=O)[C@H](CC(C)C)NC(=O)[C@H](Cc1ccc(O)cc1)NC(=O)[C@@H](CCC(=O)O)NC(=O)[C@@H](NC(=O)[C@H](Cc1ccccc1)NC(=O)[C@H](CCC(=O)O)NC(=O)C(C)(C)NC(=O)[C@H](CCC(N)=O)NC(=O)[C@H](C)NC(=O)[C@H](CCCCNC(=O)COCCOCCNC(=O)COCCOCCNC(=O)CC[C@H](NC(=O)CCCCCCCCCCCCCCCCC(=O)O)C(=O)O)NC(=O)[C@H](CCCN)NC(=O)[C@H](CC(=O)O)NC(=O)[C@H](CC(C)C)NC(=O)[C@](C)(CC(C)C)NC(=O)[C@@H](NC(=O)[C@H](CO)NC(=O)[C@H](Cc1ccc(O)cc1)NC(=O)[C@H](CC(=O)O)NC(=O)[C@H](CO)NC(=O)[C@@H](NC(=O)[C@](C)(Cc1ccccc1F)NC(=O)[C@@H](NC(=O)CNC(=O)[C@H](CCC(=O)O)NC(=O)C(C)(C)NC(=O)[C@@H](N)Cc1ccc(O)cc1)[C@@H](C)O)[C@@H](C)O)[C@@H](C)CC)[C@@H](C)CC)C(=O)N[C@@H](CCC(=O)O)C(=O)NCC(=O)NCC(=O)N1CCC[C@H]1C(=O)N[C@@H](CO)C(=O)N[C@@H](CO)C(=O)NCC(=O)N[C@@H](C)C(=O)N1CCC[C@H]1C(=O)N1CCC[C@H]1C(=O)N1CCC[C@H]1C(=O)N[C@@H](CO)C(N)=O [Example 2] (H-Y[Aib]EGT[αMePhe(2-F)]TSDYSI[αMeL]LD[Orn]K([AEEA-AEEA-γGlu-C18 diacid])AQ[Aib]EFI[dE]YLIEGGPSSGAPPPS-NH2; N-terminus assumed)	0.06 nM	100%	75.5%	18.3%	0.3%	231.7 (9.6) hr*kg*nmol/L/nmol	5.19 (0.20) kg*nmol/L/nmol	12.9 mL/h/kg	6 h	7.55 h	4.32 mL/h/kg	14.7 h	20.3 h	0.25 h	2.35 nM	low	22%	3.68 CDI	
CC[C@H](C)[C@H](NC(=O)[C@H](CC(C)C)NC(=O)[C@H](Cc1ccc(O)cc1)NC(=O)[C@@H](CCC(=O)O)NC(=O)[C@@H](NC(=O)[C@H](Cc1ccccc1)NC(=O)[C@H](CCC(=O)O)NC(=O)C(C)(C)NC(=O)[C@H](CCC(N)=O)NC(=O)[C@H](C)NC(=O)[C@H](CCCCNC(=O)COCCOCCNC(=O)COCCOCCNC(=O)CC[C@H](NC(=O)CCCCCCCCCCCCCCCCCCC(=O)O)C(=O)O)NC(=O)[C@H](CCCN)NC(=O)[C@H](CC(=O)O)NC(=O)[C@H](CC(C)C)NC(=O)[C@](C)(CC(C)C)NC(=O)[C@@H](NC(=O)[C@H](CO)NC(=O)[C@H](Cc1ccc(O)cc1)NC(=O)[C@H](CC(=O)O)NC(=O)[C@H](CO)NC(=O)[C@@H](NC(=O)[C@](C)(Cc1ccccc1F)NC(=O)[C@@H](NC(=O)CNC(=O)[C@H](CCC(=O)O)NC(=O)C(C)(C)NC(=O)[C@@H](N)Cc1ccc(O)cc1)[C@@H](C)O)[C@@H](C)O)[C@@H](C)CC)[C@@H](C)CC)C(=O)N[C@@H](CCC(=O)O)C(=O)NCC(=O)NCC(=O)N1CCC[C@H]1C(=O)N[C@@H](CO)C(=O)N[C@@H](CO)C(=O)NCC(=O)N[C@@H](C)C(=O)N1CCC[C@H]1C(=O)N1CCC[C@H]1C(=O)N1CCC[C@H]1C(=O)N[C@@H](CO)C(N)=O [Example 3]	0.0458 nM	100%	68.8%	25.8%	0.3%	371.8 (21.8) hr*kg*nmol/L/nmol	4.71 (0.50) kg*nmol/L/nmol	6.31 mL/h/kg	6 h	15 h	2.7 mL/h/kg	21.3 h	32.1 h	0.33 h	2.23 nM	low	0%		
CC[C@H](C)[C@H](NC(=O)[C@H](CC(C)C)NC(=O)[C@H](Cc1ccc(O)cc1)NC(=O)[C@H](CCC(=O)O)NC(=O)[C@@H](NC(=O)[C@H](Cc1ccccc1)NC(=O)[C@H](C)NC(=O)C(C)(C)NC(=O)[C@H](CCC(N)=O)NC(=O)[C@H](C)NC(=O)[C@H](CCCCNC(=O)COCCOCCNC(=O)COCCOCCNC(=O)CC[C@H](NC(=O)CCCCCCCCCCCCCCCCC(=O)O)C(=O)O)NC(=O)[C@H](CCCCN)NC(=O)[C@H](CC(=O)O)NC(=O)[C@H](CC(C)C)NC(=O)[C@H](CC(C)C)NC(=O)[C@@H](NC(=O)[C@H](CO)NC(=O)[C@H](Cc1ccc(O)cc1)NC(=O)[C@H](CC(=O)O)NC(=O)[C@H](CO)NC(=O)[C@@H](NC(=O)[C@H](Cc1ccccc1)NC(=O)[C@@H](NC(=O)CNC(=O)[C@H](CCC(=O)O)NC(=O)C(C)(C)NC(=O)[C@@H](N)Cc1ccc(O)cc1)[C@@H](C)O)[C@@H](C)O)[C@@H](C)CC)[C@@H](C)CC)C(=O)N[C@@H](C)C(=O)NCC(=O)NCC(=O)N1CCC[C@H]1C(=O)N[C@@H](CO)C(=O)N[C@@H](CO)C(=O)NCC(=O)N[C@@H](C)C(=O)N1CCC[C@H]1C(=O)N1CCC[C@H]1C(=O)N1CCC[C@H]1C(=O)N[C@@H](CO)C(N)=O [Example 316] (H-Y[Aib]EGTFTSDYSILLDKK([AEEA-AEEA-γGlu-C18 diacid])AQ[Aib]AFIEYLIAGGPSSGAPPPS-NH2)																			Ki (human GIP receptor; read-out: hGIPR Ki, nM (SEM, n)): 0.0418 nM; frequency of positive CD+ T cell response (CDI>2.5) [7]: low; Ki (human GLP-1R; read-out: hGLP1R Ki, (nM) (SEM, n)): 0.957 nM
